ChEMBL document CHEMBL1201862, “PubChem BioAssay data set” (2004)
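Test compounds were applied to cells in 96-well plates for 48 hours at 5 doses. GI50 = concentration required for 50% inhibition of growth.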 Calls of active or inactive are those of the source. Cut-off read from the data, not from the text of the source: active = GI50 up to about 1.1 µM and inactive = higher.

Key:
Test in all cases: NCI anticancer screen, dose series, 48 h
A498 = test system: A498
COLO 205 = test system: COLO 205
HL-60 = test system: HL-60
IGROV-1 = test system: IGROV-1
LOX IMVI = test system: LOX IMVI
Malme-3M = test system: Malme-3M
NCI-H23 = test system: NCI-H23
OVCAR-3 = test system: OVCAR-3
OVCAR-5 = test system: OVCAR-5
SK-MEL-2 = test system: SK-MEL-2
UACC-257 = test system: UACC-257
UACC-62 = test system: UACC-62
UO-31 = test system: UO-31
SNB-19 = test system: SNB-19
DU-145 = test system: DU-145
MDA-MB-231 = test system: MDA-MB-231
NCI/ADR-RES = test system: NCI/ADR-RES
PC-3 = test system: PC-3

SMILES	GI50 (A498)	GI50 (COLO 205)	GI50 (HL-60)	GI50 (IGROV-1)	GI50 (LOX IMVI)	GI50 (Malme-3M)	GI50 (NCI-H23)	GI50 (OVCAR-3)	GI50 (OVCAR-5)	GI50 (SK-MEL-2)	GI50 (UACC-257)	GI50 (UACC-62)	GI50 (UO-31)	GI50 (SNB-19)	GI50 (DU-145)	GI50 (MDA-MB-231)	GI50 (NCI/ADR-RES)	GI50 (PC-3)
O=C(CSc1nnc(Cc2ccccc2)o1)Nc1ccccc1	> 100 µM (inactive)	> 100 µM (inactive)	> 100 µM (inactive)	> 100 µM (inactive)	> 100 µM (inactive)	> 100 µM (inactive)	> 100 µM (inactive)	> 100 µM (inactive)	> 100 µM (inactive)	> 100 µM (inactive)	> 100 µM (inactive)	> 100 µM (inactive)	> 100 µM (inactive)	–	–	–	–	–
O=C1Cc2ccccc2CCc2ccccc21	> 100 µM (inactive)	> 100 µM (inactive)	> 100 µM (inactive)	> 100 µM (inactive)	> 100 µM (inactive)	44.7 µM (inactive)	74.6 µM (inactive)	> 100 µM (inactive)	> 100 µM (inactive)	64.1 µM (inactive)	> 100 µM (inactive)	> 100 µM (inactive)	45.4 µM (inactive)	> 100 µM (inactive)	–	–	–	–
CC1=NN(c2ccccc2)C(=O)/C1=C\c1ccc([N+](=O)[O-])cc1	11.4 µM (inactive)	17.7 µM (inactive)	23.3 µM (inactive)	29.6 µM (inactive)	21.1 µM (inactive)	23.9 µM (inactive)	27.9 µM (inactive)	–	24.5 µM (inactive)	21.9 µM (inactive)	28.7 µM (inactive)	21.7 µM (inactive)	32.3 µM (inactive)	30.5 µM (inactive)	–	–	–	–
C=C1CCC2(C(C)=O)COC1(C)O2 (configuration not stated)	–	> 100 µM (inactive)	> 100 µM (inactive)	> 100 µM (inactive)	> 100 µM (inactive)	> 100 µM (inactive)	> 10 µM (inactive)	> 100 µM (inactive)	–	–	> 100 µM (inactive)	> 100 µM (inactive)	> 100 µM (inactive)	> 100 µM (inactive)	–	–	–	–
O=[N+]([O-])c1ccc(-c2ccc(C3=Nn4c(nnc4-c4ccc(Cl)cc4)SC3)o2)cc1	92.7 µM (inactive)	> 100 µM (inactive)	> 59 µM (inactive)	56 µM (inactive)	> 100 µM (inactive)	> 52.5 µM (inactive)	> 53.2 µM (inactive)	94.8 µM (inactive)	> 100 µM (inactive)	99.3 µM (inactive)	> 100 µM (inactive)	> 100 µM (inactive)	> 100 µM (inactive)	30.3 µM (inactive)	–	–	–	–
O=C1c2ccccc2C(=O)C12CCc1ccccc12	–	> 100 µM (inactive)	23.6 µM (inactive)	> 100 µM (inactive)	> 100 µM (inactive)	> 100 µM (inactive)	> 100 µM (inactive)	> 100 µM (inactive)	–	–	–	> 100 µM (inactive)	> 100 µM (inactive)	–	–	–	–	–
NC(=O)CCC(NC(=O)Cc1ccccc1)C(=O)O (configuration not stated)	> 2470 µM (inactive)	> 2470 µM (inactive)	> 2470 µM (inactive)	1610 µM (inactive)	–	1530 µM (inactive)	> 2470 µM (inactive)	> 2470 µM (inactive)	> 2470 µM (inactive)	> 2470 µM (inactive)	–	> 2470 µM (inactive)	667 µM (inactive)	> 2470 µM (inactive)	–	–	–	–
C/C(CCc1ccccc1)=N\NC(N)=S	> 100 µM (inactive)	> 100 µM (inactive)	> 100 µM (inactive)	> 100 µM (inactive)	> 100 µM (inactive)	> 100 µM (inactive)	> 100 µM (inactive)	> 100 µM (inactive)	> 100 µM (inactive)	> 100 µM (inactive)	> 100 µM (inactive)	> 100 µM (inactive)	> 100 µM (inactive)	–	–	–	–	–
CCOC(=O)C1=C(O)C(=O)c2c(OC)ccc(OC)c2C1=O	> 100 µM (inactive)	> 100 µM (inactive)	> 100 µM (inactive)	> 100 µM (inactive)	> 100 µM (inactive)	> 100 µM (inactive)	> 100 µM (inactive)	> 100 µM (inactive)	> 100 µM (inactive)	> 100 µM (inactive)	> 100 µM (inactive)	> 100 µM (inactive)	> 100 µM (inactive)	> 100 µM (inactive)	–	–	–	–
Cn1cc(NC(=O)c2cc(NC(=O)CCCCCCCCCC(=O)Nc3cc(C(=O)Nc4cc(C(=O)NCCC(=N)N)n(C)c4)n(C)c3)cn2C)cc1C(=O)NCCC(=N)N	–	21.2 µM (inactive)	–	41.5 µM (inactive)	31 µM (inactive)	0.971 µM (active)	34.8 µM (inactive)	19.2 µM (inactive)	32.7 µM (inactive)	29.3 µM (inactive)	15.8 µM (inactive)	31.2 µM (inactive)	53.5 µM (inactive)	30.8 µM (inactive)	–	–	–	–
CC1=C(NC(=O)/C(=N/NC(=S)NN)C2C(=O)CC(C)(C)CC2=O)C(=O)c2ccccc2C1=O	20.9 µM (inactive)	12.5 µM (inactive)	3.41 µM (inactive)	5.21 µM (inactive)	3.34 µM (inactive)	16 µM (inactive)	5.06 µM (inactive)	2.3 µM (inactive)	22.4 µM (inactive)	6.14 µM (inactive)	3.43 µM (inactive)	2.49 µM (inactive)	12.8 µM (inactive)	13 µM (inactive)	–	–	–	–
COc1ccc(/C=C2\N=C(SC)N(CN3CCOCC3)C2=O)cc1	34 µM (inactive)	36.3 µM (inactive)	56.9 µM (inactive)	37.5 µM (inactive)	37.2 µM (inactive)	72.6 µM (inactive)	> 100 µM (inactive)	90.6 µM (inactive)	> 100 µM (inactive)	> 100 µM (inactive)	–	40.2 µM (inactive)	49.8 µM (inactive)	84.5 µM (inactive)	65.9 µM (inactive)	> 100 µM (inactive)	80.9 µM (inactive)	49.2 µM (inactive)
COc1c(CC(C)=O)c2ccccc2n1C(C)=O	> 100 µM (inactive)	> 100 µM (inactive)	> 100 µM (inactive)	> 100 µM (inactive)	–	–	> 100 µM (inactive)	> 100 µM (inactive)	–	> 100 µM (inactive)	> 100 µM (inactive)	> 100 µM (inactive)	> 100 µM (inactive)	> 100 µM (inactive)	–	–	–	–
COC1C2c3ccccc3C(C#N)(Cc3ccc4c(c32)OCO4)N1C(=O)c1ccccc1 (configuration not stated)	–	16.7 µM (inactive)	8.57 µM (inactive)	13 µM (inactive)	> 100 µM (inactive)	37.8 µM (inactive)	62.2 µM (inactive)	42.5 µM (inactive)	> 100 µM (inactive)	46.8 µM (inactive)	26.1 µM (inactive)	3.37 µM (inactive)	31.7 µM (inactive)	46.6 µM (inactive)	–	–	–	–
C/C(CC(=O)Nc1cccc(Cl)c1C)=N\NC(N)=S	> 100 µM (inactive)	> 100 µM (inactive)	> 100 µM (inactive)	> 100 µM (inactive)	> 100 µM (inactive)	> 100 µM (inactive)	> 100 µM (inactive)	> 100 µM (inactive)	> 100 µM (inactive)	> 100 µM (inactive)	> 100 µM (inactive)	> 100 µM (inactive)	> 100 µM (inactive)	–	–	–	–	–
C#CCSc1nc(N)c2ncn(C3OC(CO)C(O)C3O)c2n1 (configuration not stated)	> 100 µM (inactive)	> 100 µM (inactive)	> 100 µM (inactive)	> 100 µM (inactive)	> 100 µM (inactive)	> 100 µM (inactive)	> 100 µM (inactive)	> 100 µM (inactive)	–	–	> 100 µM (inactive)	–	> 100 µM (inactive)	> 100 µM (inactive)	–	–	–	–
CN(CCO)c1nc(N)cc(=O)[nH]1	–	> 100 µM (inactive)	> 100 µM (inactive)	> 100 µM (inactive)	> 100 µM (inactive)	> 100 µM (inactive)	> 100 µM (inactive)	> 100 µM (inactive)	> 100 µM (inactive)	> 100 µM (inactive)	> 100 µM (inactive)	> 100 µM (inactive)	> 100 µM (inactive)	> 100 µM (inactive)	–	–	–	–
NNC(=O)CCC(=O)Nc1cc(Cl)c(Cl)cc1Cl	38.3 µM (inactive)	> 100 µM (inactive)	> 100 µM (inactive)	> 100 µM (inactive)	> 100 µM (inactive)	> 100 µM (inactive)	> 100 µM (inactive)	75.2 µM (inactive)	> 100 µM (inactive)	> 100 µM (inactive)	> 100 µM (inactive)	> 100 µM (inactive)	> 100 µM (inactive)	> 100 µM (inactive)	–	–	–	–
Cc1ccc(NC(=O)CC2C(=O)Nc3ccccc3S2(=O)=O)c(C)c1 (configuration not stated)	14.8 µM (inactive)	–	2.77 µM (inactive)	12.4 µM (inactive)	15 µM (inactive)	12.9 µM (inactive)	17.8 µM (inactive)	14.1 µM (inactive)	24.7 µM (inactive)	29 µM (inactive)	21.6 µM (inactive)	7.26 µM (inactive)	18.8 µM (inactive)	14 µM (inactive)	–	–	–	–
CC1C[C@H](OC(N)=O)C(C)CC1=O (some centres not stated)	> 100 µM (inactive)	> 100 µM (inactive)	> 100 µM (inactive)	> 100 µM (inactive)	> 100 µM (inactive)	> 100 µM (inactive)	> 100 µM (inactive)	> 100 µM (inactive)	> 100 µM (inactive)	> 100 µM (inactive)	> 100 µM (inactive)	> 100 µM (inactive)	> 100 µM (inactive)	> 100 µM (inactive)	–	–	–	–
O=C1C(c2ccc(Cl)cc2)=[N+]([O-])c2ccccc21	24.7 µM (inactive)	17.7 µM (inactive)	3.3 µM (inactive)	18.1 µM (inactive)	14 µM (inactive)	17.8 µM (inactive)	16.1 µM (inactive)	13.6 µM (inactive)	22.9 µM (inactive)	23.1 µM (inactive)	16 µM (inactive)	18.3 µM (inactive)	> 100 µM (inactive)	23.3 µM (inactive)	–	–	–	–
